According to paper PMC8364686, “Safety, tolerability, pharmacokinetics and pharmacodynamics of single oral doses of BI 187004, an inhibitor of 11beta-hydroxysteroid dehydrogenase-1, in healthy male volunteers with overweight or obesity” (Clinical Diabetes and Endocrinology, 2021):
Several values for one entry are separate records, joined by “and”; a condition that tells them apart may be missing. Equal values may be shown once. Entries after “also recorded” stand apart in the source; their conditions may differ.

Experiments:
HPA axis = assay: Total urinary corticosteroid excretion (aTHF + THF + UFF + UFE + THE); conditions: for Total corticosteroids 0 – 24h (day 1) gMean (gCV [%]) / Total corticosteroids % of baseline 0 – 24h (day 1)/-24 – 0h (day -1) gMean (gCV): urine; for Total corticosteroids placebo corrected % change from baseline, adjusted gMean (90% CI) / Total corticosteroids placebo corrected % of baseline, adjusted gMean (90% CI): urine 0–24 h, ANCOVA
Description: The urinary samples for determination of urinary free cortisol (UFF), urinary free cortisone (UFE), urinary total cortisol (UTF), urinary total cortisone (UTE), and their metabolites 5alpha- or allo-tetrahydrocortisol (aTHF), 5beta-tetrahydrocortisol (THF), and tetrahydrocortisone (THE) were analyzed using a validated LC–MS/MS method.
The placebo corrected percentage change from baseline of the data shown in Supplementary Table 1 and 2 was analyzed statistically by an ANCOVA model with baseline as covariate on the logarithmic scale.

[1] = tested on: healthy male volunteers with overweight or obesity; assay: Safety and tolerability (adverse events, clinical laboratory, vital signs, ECG); type: in vivo, human
Description: (§1) Safety and tolerability of BI 187004 were assessed in a descriptive way using the following investigations: recording of adverse events, clinical laboratory parameters (haematology, coagulation, enzymes, substrates, electrolytes, hormones, and urinalysis), vital signs (blood pressure, puls rate), 12-lead ECG (electrocardiogram) with special attention to QTc prolongation, and physical examination (occurrence of findings).

[2] = tested on: hypothalamus–pituitary–adrenal axis hormones; assay: Hormones of the HPA axis: difference from baseline; type: in vivo, human
Description: as §1

N#Cc1ccc2c(c1)[C@H]1CCCN(C(=O)c3ccc4[nH]cnc4c3)[C@H]1C2 [BI 187004]
Total corticosteroids 0 – 24h (day 1) gMean (gCV [%]) (HPA axis; 2.5 mg): 16067.0 (18.128) μg | Total corticosteroids % of baseline 0 – 24h (day 1)/-24 – 0h (day -1) gMean (gCV) (HPA axis; 2.5 mg): 161.3 (44.4) % | Total corticosteroids placebo corrected % change from baseline, adjusted gMean (90% CI) (HPA axis; 2.5 mg): 30.3 (11.5, 52.2) 0.0062% | Total corticosteroids placebo corrected % of baseline, adjusted gMean (90% CI) (HPA axis; 2.5 mg): 130.3% and 130.3 (111.5, 152.2) % | Total corticosteroids 0 – 24h (day 1) gMean (gCV [%]) (HPA axis; 5 mg): 24324.0 (23.620) μg | Total corticosteroids % of baseline 0 – 24h (day 1)/-24 – 0h (day -1) gMean (gCV) (HPA axis; 5 mg): 179.9 (21.8) % | Total corticosteroids placebo corrected % change from baseline, adjusted gMean (90% CI) (HPA axis; 5 mg): 72.1 (47.7, 100.6) <0.0001% | Total corticosteroids placebo corrected % of baseline, adjusted gMean (90% CI) (HPA axis; 5 mg): 172.1 (147.7, 200.6) % | Total corticosteroids 0 – 24h (day 1) gMean (gCV [%]) (HPA axis; 10 mg): 23965.4 (24.142) μg | Total corticosteroids % of baseline 0 – 24h (day 1)/-24 – 0h (day -1) gMean (gCV) (HPA axis; 10 mg): 178.1 (24.5) % | Total corticosteroids placebo corrected % change from baseline, adjusted gMean (90% CI) (HPA axis; 10 mg): 69.9 (45.8, 98.1) <0.0001% | Total corticosteroids placebo corrected % of baseline, adjusted gMean (90% CI) (HPA axis; 10 mg): 169.9 (145.8, 198.1) % | Total corticosteroids 0 – 24h (day 1) gMean (gCV [%]) (HPA axis; 20 mg): 27240.6 (5.276) μg | Total corticosteroids % of baseline 0 – 24h (day 1)/-24 – 0h (day -1) gMean (gCV) (HPA axis; 20 mg): 174.7 (31.3) % | Total corticosteroids placebo corrected % change from baseline, adjusted gMean (90% CI) (HPA axis; 20 mg): 80.9 (54.9, 111.2) <0.0001% | Total corticosteroids placebo corrected % of baseline, adjusted gMean (90% CI) (HPA axis; 20 mg): 180.9 (154.9, 211.2) % | Total corticosteroids 0 – 24h (day 1) gMean (gCV [%]) (HPA axis; 40 mg): 24484.7 (17.661) μg | Total corticosteroids % of baseline 0 – 24h (day 1)/-24 – 0h (day -1) gMean (gCV) (HPA axis; 40 mg): 213.9 (24.4) % | Total corticosteroids placebo corrected % change from baseline, adjusted gMean (90% CI) (HPA axis; 40 mg): 86.6 (60.0, 117.5) <0.0001% | Total corticosteroids placebo corrected % of baseline, adjusted gMean (90% CI) (HPA axis; 40 mg): 186.6 (160.0, 217.5) % | Total corticosteroids 0 – 24h (day 1) gMean (gCV [%]) (HPA axis; 80 mg): 29884.0 (24.608) μg | Total corticosteroids % of baseline 0 – 24h (day 1)/-24 – 0h (day -1) gMean (gCV) (HPA axis; 80 mg): 189.7 (16.0) % | Total corticosteroids placebo corrected % change from baseline, adjusted gMean (90% CI) (HPA axis; 80 mg): 97.5 (69.1, 130.7) <0.0001% | Total corticosteroids placebo corrected % of baseline, adjusted gMean (90% CI) (HPA axis; 80 mg): 197.5% and 197.5 (169.1, 230.7) % | Total corticosteroids 0 – 24h (day 1) gMean (gCV [%]) (HPA axis; 160 mg): 25409.0 (28.223) μg | Total corticosteroids % of baseline 0 – 24h (day 1)/-24 – 0h (day -1) gMean (gCV) (HPA axis; 160 mg): 171.9 (13.1) % | Total corticosteroids placebo corrected % change from baseline, adjusted gMean (90% CI) (HPA axis; 160 mg): 72.8 (48.1, 101.6) <0.0001% | Total corticosteroids placebo corrected % of baseline, adjusted gMean (90% CI) (HPA axis; 160 mg): 172.8 (148.1, 201.6) % | Total corticosteroids 0 – 24h (day 1) gMean (gCV [%]) (HPA axis; 240 mg): 26872.4 (19.594) μg | Total corticosteroids % of baseline 0 – 24h (day 1)/-24 – 0h (day -1) gMean (gCV) (HPA axis; 240 mg): 174.5 (17.4) % | Total corticosteroids placebo corrected % change from baseline, adjusted gMean (90% CI) (HPA axis; 240 mg): 79.4 (53.7, 109.5) <0.0001% | Total corticosteroids placebo corrected % of baseline, adjusted gMean (90% CI) (HPA axis; 240 mg): 179.4 (153.7, 209.5) % | Total corticosteroids 0 – 24h (day 1) gMean (gCV [%]) (HPA axis; 360 mg): 26152.2 (30.046) μg | Total corticosteroids % of baseline 0 – 24h (day 1)/-24 – 0h (day -1) gMean (gCV) (HPA axis; 360 mg): 168.0 (28.0) % | Total corticosteroids placebo corrected % change from baseline, adjusted gMean (90% CI) (HPA axis; 360 mg): 73.8 (48.8, 102.9) <0.0001% | Total corticosteroids placebo corrected % of baseline, adjusted gMean (90% CI) (HPA axis; 360 mg): 173.8 (148.8, 202.9) % | Total urinary corticosteroid excretion (sum of UFF, UFE, aTHF, THF and THE), maximum across doses (HPA axis; placebo corrected % of baseline): up to 197.5% | Incidence of headache ([1]; 3 out of 54 subjects receiving BI 187004): 5.6% | Incidence of drug-related adverse events ([1]; all 9 BI 187004 dose groups (9 subjects)): 16.7% | Subjects reporting at least 1 adverse event ([1]; all BI 187004 dose groups (15 subjects)): 27.8% | Clinical laboratory evaluations, vital signs, ECG findings ([1]; single oral doses 2.5–360 mg): No clinically relevant deviations; also recorded: no notable findings | Deaths, AEs leading to discontinuation, serious AEs ([1]; single oral doses 2.5–360 mg): no serious AEs | Hypoglycemic episodes ([1]; single oral doses 2.5–360 mg): No hypoglycemic episodes | Safety and tolerability ([1]; single oral doses 2.5–360 mg): well tolerated and safe; also recorded: safe and well tolerated | ACTH mean difference from baseline ([2]; 2.5 mg single oral dose, 24:00): 0.59 pmol/L | Androstenedione mean difference from baseline ([2]; 2.5 mg single oral dose, 24:00): 0.2 nmol/L | Cortisol mean difference from baseline ([2]; 2.5 mg single oral dose, 24:00): -77.1 nmol/L | DHEA-s mean difference from baseline ([2]; 2.5 mg single oral dose, 24:00): 0.7 µmol/L | SHBG mean difference from baseline ([2]; 2.5 mg single oral dose, 24:00): 2.6 nmol/L | Total Testosterone mean difference from baseline ([2]; 2.5 mg single oral dose, 24:00): 0.1 nmol/L | ACTH mean difference from baseline ([2]; 2.5 mg single oral dose, 96:00): -0.46 pmol/L | Androstenedione mean difference from baseline ([2]; 2.5 mg single oral dose, 96:00): -1.8 nmol/L | Cortisol mean difference from baseline ([2]; 2.5 mg single oral dose, 96:00): -65.3 nmol/L | DHEA-s mean difference from baseline ([2]; 2.5 mg single oral dose, 96:00): 2.1 µmol/L | SHBG mean difference from baseline ([2]; 2.5 mg single oral dose, 96:00): -0.1 nmol/L | Total Testosterone mean difference from baseline ([2]; 2.5 mg single oral dose, 96:00): -0.3 nmol/L | ACTH mean difference from baseline ([2]; 5 mg single oral dose, 24:00): 0.53 pmol/L | Androstenedione mean difference from baseline ([2]; 5 mg single oral dose, 24:00): 1.2 nmol/L | Cortisol mean difference from baseline ([2]; 5 mg single oral dose, 24:00): 1.8 nmol/L | DHEA-s mean difference from baseline ([2]; 5 mg single oral dose, 24:00): 1.6 µmol/L | SHBG mean difference from baseline ([2]; 5 mg single oral dose, 24:00): 3.0 nmol/L | Total Testosterone mean difference from baseline ([2]; 5 mg single oral dose, 24:00): -0.9 nmol/L | ACTH mean difference from baseline ([2]; 5 mg single oral dose, 96:00): -1.65 pmol/L | Androstenedione mean difference from baseline ([2]; 5 mg single oral dose, 96:00): -3.7 nmol/L | Cortisol mean difference from baseline ([2]; 5 mg single oral dose, 96:00): -75.0 nmol/L | DHEA-s mean difference from baseline ([2]; 5 mg single oral dose, 96:00): 0.9 µmol/L | SHBG mean difference from baseline ([2]; 5 mg single oral dose, 96:00): 2.7 nmol/L | Total Testosterone mean difference from baseline ([2]; 5 mg single oral dose, 96:00): -0.7 nmol/L | ACTH mean difference from baseline ([2]; 10 mg single oral dose, 24:00): 0.78 pmol/L | Androstenedione mean difference from baseline ([2]; 10 mg single oral dose, 24:00): 1.3 nmol/L | Cortisol mean difference from baseline ([2]; 10 mg single oral dose, 24:00): -78.7 nmol/L | DHEA-s mean difference from baseline ([2]; 10 mg single oral dose, 24:00): 1.2 µmol/L | SHBG mean difference from baseline ([2]; 10 mg single oral dose, 24:00): 3.4 nmol/L | Total Testosterone mean difference from baseline ([2]; 10 mg single oral dose, 24:00): -0.2 nmol/L | ACTH mean difference from baseline ([2]; 10 mg single oral dose, 96:00): -1.35 pmol/L | Androstenedione mean difference from baseline ([2]; 10 mg single oral dose, 96:00): -3.4 nmol/L
